Laboratory results published in US11180462B2, “Microbiocidal oxadiazole derivatives” (SYNGENTA PARTICIPATIONS AG, priority 2015, dated 2021).

Legend:
[1] = system: Puccinia recondita f. Sp. Tritici; experiment: Fungicidal activity against Puccinia recondita f. sp. tritici / wheat / leaf disc preventative (brown rust); type: in vivo; settings: foliar, 200 ppm in the applied formulation, wheat leaf segments, preventative, compared to untreated control leaf disks, read-out: disease control
Method in brief: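 Compound application precedes infection: segments of wheat cv. Kanzler, sprayed at 200 ppm, are inoculated with a spore suspension after 1 day. Incubation is at 19° C. with 75% relative humidity and 12 h light/12 h darkness, and control versus untreated leaves is rated 7 to 9 days post-application.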

Phakopsora Pachyrhizi = experiment: Fungicidal activity against Phakopsora pachyrhizi / soybean / leaf disc preventative (Asian soybean rust); type: in vivo; settings: foliar, 200 ppm in the applied formulation, soybean leaf disks, compared to untreated control leaf disks, read-out: disease control
Method in brief: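 Preventative soybean leaf-disc test: discs on water agar sprayed with diluted formulated compound, inoculated one day later with spores on the lower surface. Held 24–36 h dark at 20°C, 75% rh, then 12 h light/day; percent disease control versus untreated discs scored 12–14 days after application.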

[2] = system: Glomerella lagenarium (Colletotrichum lagenarium); experiment: Fungicidal activity against Glomerella lagenarium (Colletotrichum lagenarium) liquid culture / cucumber / preventative (anthracnose); type: cell-based; settings: Colletotrichum orbiculare; 20 ppm in the applied formulation; liquid culture (PDB), growth inhibition measured photometrically after 3 to 4 days; compared to untreated control; read-out: disease control
Method in brief: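 Photometric read-out of fungal growth after 2–7 days, expressed as percent antifungal activity versus untreated check. Cryo-stored conidia in PDB; compound at 20 ppm; dark, 24 °C, 96% RH.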

[3] = system: Puccinia recondita f. Sp. Tritici; experiment: Fungicidal activity against Puccinia recondita f. sp. tritici / wheat / leaf disc curative (brown rust); type: in vivo; settings: foliar, 24 h, 200 ppm in the applied formulation, wheat leaf segments, curative (applied 1 day after inoculation), compared to untreated control leaf disks, read-out: disease control
Method in brief: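 Inoculate cv. Kanzler segments on agar; hold dark, 19° C, 75% RH. Spray diluted formulated compound at day 1. Incubate 12 h light/12 h dark, same temperature and humidity; score % control vs untreated 6–8 days later.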

COCCC(=O)N(Cc1ccc(-c2noc(C(F)(F)F)n2)cc1)OC [Compound 1.31, N,3-dimethoxy-N-[[4-[5-(trifluoromethyl)-1,2,4-oxadiazol-3-yl]phenyl]methyl]-propanamide]
≥ 80%: pest or weed control at 200 ppm [1] | pest or weed control at 200 ppm (Phakopsora Pachyrhizi) | inhibition of growth at 20 ppm [2] | pest or weed control at 200 ppm [3]

COCCN(Cc1ccc(-c2noc(C(F)(F)F)n2)cc1)C(=O)C1CC1C (stereo not shown) [Compound 1.341, N-(2-methoxyethyl)-2-methyl-N-[[4-[5-(trifluoromethyl)-1,2,4-oxadiazol-3-yl]phenyl]methyl]-cyclopropane-carboxamide]
≥ 80%: pest or weed control at 200 ppm [1] | pest or weed control at 200 ppm (Phakopsora Pachyrhizi) | inhibition of growth at 20 ppm [2] | pest or weed control at 200 ppm [3]

CON(Cc1ccc(-c2noc(C(F)(F)F)n2)cc1)C(=O)C(C)(C)CCl [Compound 1.35, 3-chloro-N-methoxy-2,2-dimethyl-N-[[4-[5-(trifluoromethyl)-1,2,4-oxadiazol-3-yl]phenyl]methyl]-propanamide]
≥ 80%: pest or weed control at 200 ppm [1] | pest or weed control at 200 ppm (Phakopsora Pachyrhizi) | inhibition of growth at 20 ppm [2] | pest or weed control at 200 ppm [3]

N#CCC(=O)N(Cc1ccc(-c2noc(C(F)(F)F)n2)cc1)CC(F)(F)F [Compound 1.701, 2-cyano-N-(2,2,2-trifluoroethyl)-N-[[4-[5-(trifluoromethyl)-1,2,4-oxadiazol-3-yl]phenyl]methyl]-acetamide]
≥ 80%: pest or weed control at 200 ppm [1] | pest or weed control at 200 ppm (Phakopsora Pachyrhizi) | inhibition of growth at 20 ppm [2] | pest or weed control at 200 ppm [3]

O=C(CC(F)(F)F)N(Cc1ccc(-c2noc(C(F)(F)F)n2)cc1)C1COC1 [Compound 1.751, 3,3,3-trifluoro-N-(oxetan-3-yl)-N-[[4-[5-(trifluoromethyl)-1,2,4-oxadiazol-3-yl]phenyl]methyl]-propanamide]
≥ 80%: pest or weed control at 200 ppm [1] | pest or weed control at 200 ppm (Phakopsora Pachyrhizi) | inhibition of growth at 20 ppm [2] | pest or weed control at 200 ppm [3]

N#CCC(=O)N(Cc1ccc(-c2noc(C(F)(F)F)n2)cc1)C1CC1 [Compound 1.146, 2-cyano-N-cyclopropyl-N-[[4-[5-(trifluoromethyl)-1,2,4-oxadiazol-3-yl]phenyl]methyl]-acetamide]
≥ 80%: pest or weed control at 200 ppm [1] | pest or weed control at 200 ppm (Phakopsora Pachyrhizi) | inhibition of growth at 20 ppm [2] | pest or weed control at 200 ppm [3]

O=C(C1CCOC1)N(Cc1ccc(-c2noc(C(F)(F)F)n2)cc1)CC1CC1 (stereo not shown) [Compound 1.215, N-(cyclopropylmethyl)-N-[[4-[5-(trifluoromethyl)-1,2,4-oxadiazol-3-yl]phenyl]methyl]-tetrahydrofuran-3-carboxamide]
≥ 80%: pest or weed control at 200 ppm [1] | pest or weed control at 200 ppm (Phakopsora Pachyrhizi) | inhibition of growth at 20 ppm [2] | pest or weed control at 200 ppm [3]

CC(C)C(=O)N(Cc1ccc(-c2noc(C(F)(F)F)n2)cc1)CC1CCCO1 (stereo not shown) [Compound 1.412, 2-methyl-N-(tetrahydrofuran-2-ylmethyl)-N-[[4-[5-(trifluoromethyl)-1,2,4-oxadiazol-3-yl]phenyl]methyl]-propanamide]
≥ 80%: pest or weed control at 200 ppm [1] | pest or weed control at 200 ppm (Phakopsora Pachyrhizi) | inhibition of growth at 20 ppm [2] | pest or weed control at 200 ppm [3]

CCC(=O)N(C)Cc1ccc(-c2noc(C(F)(F)F)n2)cc1 [Compound 1.517, N-methyl-N-[[4-[5-(trifluoromethyl)-1,2,4-oxadiazol-3-yl]phenyl]methyl]-propanamide]
≥ 80%: pest or weed control at 200 ppm [1] | pest or weed control at 200 ppm (Phakopsora Pachyrhizi) | inhibition of growth at 20 ppm [2] | pest or weed control at 200 ppm [3]

O=C(C1CC1(F)F)N(Cc1ccc(-c2noc(C(F)(F)F)n2)cc1)C1COC1 (stereo not shown) [Compound 1.739, 2,2-difluoro-N-(oxetan-3-yl)-N-[[4-[5-(trifluoromethyl)-1,2,4-oxadiazol-3-yl]phenyl]methyl]-cyclopropane-carboxamide]
≥ 80%: pest or weed control at 200 ppm [1] | pest or weed control at 200 ppm (Phakopsora Pachyrhizi) | inhibition of growth at 20 ppm [2] | pest or weed control at 200 ppm [3]

O=C(C1CCCO1)N(Cc1ccc(-c2noc(C(F)(F)F)n2)cc1)CC1CC1 (stereo not shown) [Compound 1.242, N-(cyclopropylmethyl)-N-[[4-[5-(trifluoromethyl)-1,2,4-oxadiazol-3-yl]phenyl]methyl]-tetrahydrofuran-2-carboxamide]
≥ 80%: pest or weed control at 200 ppm [1] | pest or weed control at 200 ppm (Phakopsora Pachyrhizi) | inhibition of growth at 20 ppm [2] | pest or weed control at 200 ppm [3]

O=C(ON(Cc1ccc(-c2noc(C(F)(F)F)n2)cc1)C(=O)C1CCOC1)C1CCOC1 (stereo not shown) [Compound 1.757, [tetrahydrofuran-3-carbonyl-[[4-[5-(trifluoromethyl)-1,2,4-oxadiazol-3-yl]phenyl]methyl]-amino] tetrahydrofuran-3-carboxylate]
≥ 80%: pest or weed control at 200 ppm [1] | pest or weed control at 200 ppm (Phakopsora Pachyrhizi) | inhibition of growth at 20 ppm [2] | pest or weed control at 200 ppm [3]

O=C(CC1CC1)N(Cc1ccc(-c2noc(C(F)(F)F)n2)cc1)C1CC1 [Compound 1.99, N,2-dicyclopropyl-N-[[4-[5-(trifluoromethyl)-1,2,4-oxadiazol-3-yl]phenyl]methyl]-acetamide]
≥ 80%: pest or weed control at 200 ppm [1] | pest or weed control at 200 ppm (Phakopsora Pachyrhizi) | inhibition of growth at 20 ppm [2] | pest or weed control at 200 ppm [3]

CCC(COC)C(=O)N(CCO)Cc1ccc(-c2noc(C(F)(F)F)n2)cc1 (stereo not shown) [Compound 1.723, N-(2-hydroxyethyl)-2-(methoxymethyl)-N-[[4-[5-(trifluoromethyl)-1,2,4-oxadiazol-3-yl]phenyl]methyl]-butanamide]
≥ 80%: pest or weed control at 200 ppm [1] | pest or weed control at 200 ppm (Phakopsora Pachyrhizi) | inhibition of growth at 20 ppm [2] | pest or weed control at 200 ppm [3]

CC(C)C(=O)N(CCO)Cc1ccc(-c2noc(C(F)(F)F)n2)cc1 [Compound 1.707, N-(2-hydroxyethyl)-2-methyl-N-[[4-[5-(trifluoromethyl)-1,2,4-oxadiazol-3-yl]phenyl]methyl]-propanamide]
≥ 80%: pest or weed control at 200 ppm [1] | pest or weed control at 200 ppm (Phakopsora Pachyrhizi) | inhibition of growth at 20 ppm [2] | pest or weed control at 200 ppm [3]

CON(Cc1ccc(-c2noc(C(F)(F)F)n2)cc1)C(=O)NCC1(C#N)CC1 [Compound 3.40, 3-[(1-cyanocyclopropyl)-methyl]-1-methoxy-1-[[4-[5-(trifluoromethyl)-1,2,4-oxadiazol-3-yl]phenyl]methyl]urea]
≥ 80%: pest or weed control at 200 ppm [1] | pest or weed control at 200 ppm (Phakopsora Pachyrhizi) | inhibition of growth at 20 ppm [2] | pest or weed control at 200 ppm [3]
